Data: patent publication US20160046618A1, “Cyclopropyl Fused Thiazin-2-Amine Compounds as Beta-Secretase Inhibitors and Methods of Use” (AMGEN INC., priority 2014, published 2016)

Legend:
human recombinant BACE2 = human recombinant BACE2 (Homo sapiens (Human), UniProt Q9Y5Z0); assay: In vitro enzymatic BACE2 FRET assay; type: biochemical; settings: read-out: IC50 IP (μM) BACE2 enzyme
In short: (§1)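 Fluorescence from cleavage of a quenched peptide spanning the BACE site (50 nM) was read at 488 nm excitation, 590 nm emission. Purified enzyme (Ni-NTA) and compound reacted for one hour before a Tris stop shifted pH to neutral.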

[1] = system: Aβ40 in conditioned medium of cells stably expressing Amyloid Precursor Protein (APP); assay: In vitro BACE-1 cell-based assay (Aβ40 sandwich ELISA); settings: read-out: IC50 IP (μM) BACE1 cell
In short: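 Aβ40 in supernatants measured by time-resolved fluorescence sandwich ELISA, with pAb40 as capture and biotin-6E10 as detector antibody, each incubated at 4 °C.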

Recombinant Cat D = Recombinant Cat D (Homo sapiens (Human), UniProt P07339); assay: In vitro enzymatic Cathepsin D (Cat D) FRET assay; type: biochemical; settings: read-out: IC50 IP (μM) CatD
Chain of Recombinant Cat D (P07339 65-412): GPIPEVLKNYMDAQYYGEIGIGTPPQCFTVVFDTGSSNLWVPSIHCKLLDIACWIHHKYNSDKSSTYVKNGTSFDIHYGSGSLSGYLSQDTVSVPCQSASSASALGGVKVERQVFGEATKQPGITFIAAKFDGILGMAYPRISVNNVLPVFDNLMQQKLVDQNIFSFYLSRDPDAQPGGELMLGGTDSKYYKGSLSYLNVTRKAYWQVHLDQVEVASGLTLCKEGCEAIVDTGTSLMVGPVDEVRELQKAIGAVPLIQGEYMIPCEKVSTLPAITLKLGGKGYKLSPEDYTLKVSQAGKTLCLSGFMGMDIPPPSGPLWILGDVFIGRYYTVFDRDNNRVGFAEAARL
In short: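 Recombinant Cat D expressed in CHO cells, assayed in 0.05 M citrate pH 3.5 with 5 mM CHAPS and 10% DMSO final. Reaction started with 20 nM FRET peptide substrate, incubated one hour, then stopped by Tris buffer to neutral pH; fluorescence read at ex 500/em 580 nm.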

human recombinant BACE1 = human recombinant BACE1 (Homo sapiens (Human), UniProt P56817); assay: In vitro enzymatic BACE1 FRET assay; type: biochemical; settings: read-out: IC50 IP (μM) BACE1 enzyme
Chain of human recombinant BACE1 (P56817 46-501): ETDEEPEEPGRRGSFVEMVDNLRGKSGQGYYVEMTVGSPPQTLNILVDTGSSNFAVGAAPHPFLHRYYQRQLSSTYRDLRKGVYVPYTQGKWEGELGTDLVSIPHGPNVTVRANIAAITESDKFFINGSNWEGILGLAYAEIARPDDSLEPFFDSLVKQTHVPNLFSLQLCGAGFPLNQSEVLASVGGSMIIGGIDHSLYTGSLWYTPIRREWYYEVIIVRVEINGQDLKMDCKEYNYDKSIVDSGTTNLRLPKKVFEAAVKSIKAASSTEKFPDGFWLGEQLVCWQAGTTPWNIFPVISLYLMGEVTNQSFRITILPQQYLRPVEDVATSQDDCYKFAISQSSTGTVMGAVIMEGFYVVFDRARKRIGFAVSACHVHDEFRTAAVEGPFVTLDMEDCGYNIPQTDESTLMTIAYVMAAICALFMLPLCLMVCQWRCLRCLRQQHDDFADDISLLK
In short: as §1

Chain of human recombinant BACE2 (Q9Y5Z0 63-518): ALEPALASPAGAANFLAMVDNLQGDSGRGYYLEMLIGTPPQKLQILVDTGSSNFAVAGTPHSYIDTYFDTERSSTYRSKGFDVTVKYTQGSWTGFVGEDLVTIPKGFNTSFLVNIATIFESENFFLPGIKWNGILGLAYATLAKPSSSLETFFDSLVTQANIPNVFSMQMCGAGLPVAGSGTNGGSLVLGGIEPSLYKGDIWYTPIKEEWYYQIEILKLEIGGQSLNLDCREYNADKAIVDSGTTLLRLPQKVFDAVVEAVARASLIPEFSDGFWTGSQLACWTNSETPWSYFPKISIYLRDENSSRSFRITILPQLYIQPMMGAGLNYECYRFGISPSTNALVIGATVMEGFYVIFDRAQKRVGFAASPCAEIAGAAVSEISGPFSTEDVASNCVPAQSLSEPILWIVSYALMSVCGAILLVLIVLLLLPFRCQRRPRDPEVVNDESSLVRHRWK

Row | Compound | IC50 (human recombinant BACE2) [µM] | IC50 [1] [µM] | IC50 (Recombinant Cat D) [µM] | IC50 (human recombinant BACE1) [µM]
1 | C#CCOc1cnc(C(=O)Nc2ccc(F)c([C@@]3(C)N=C(N)S[C@@]4(C#N)C[C@H]43)c2)cn1 [Example 927, N-(3-((1S,5S,6S)-3-amino-1-cyano-5-methyl-2-thia-4-azabicyclo[4.1.0]hept-3-en-5-yl)-4-fluorophenyl)-5-(2-propyn-1-yloxy)-2-pyrazinecarboxamide] | 0.00448 | 0.000667 | 126 | 0.000266
2 | C#CCOc1cnc2c(Nc3ccc(F)c([C@@]4(C)N=C(N)S[C@@]5(C#N)C[C@H]54)c3)ncnc2c1 [Example 928, (1S,5S,6S)-3-amino-5-(2-fluoro-5-((7-(2-propyn-1-yloxy)pyrido[3,2-d]pyrimidin-4-yl)amino)phenyl)-5-methyl-2-thia-4-azabicyclo[4.1.0]hept-3-ene-1-carbonitrile] | 0.0129 | 0.00723 | 439 | 0.00141
3 | C[C@]1(c2cc(NC(=O)c3ccc(Cl)cn3)ccc2F)N=C(N)S[C@@]2(C#N)C[C@H]21 [Example 929, N-(3-((1S,5S,6S)-3-amino-1-cyano-5-methyl-2-thia-4-azabicyclo[4.1.0]hept-3-en-5-yl)-4-fluorophenyl)-5-chloro 2-pyridinecarboxamide] | < 0.00203 | 0.00363 | > 400 | 0.000567
4 | C#CCOc1cnc2c(Nc3cc(F)c(F)c([C@@]4(C)N=C(N)S[C@@]5(C(=O)N6CCCC6)C[C@H]54)c3)ncnc2c1 [Example 933, N-(3-((1S,5S,6S)-3-amino-5-methyl-1-(1-pyrrolidinylcarbonyl)-2-thia-4-azabicyclo[4.1.0]hept-3-en-5-yl)-4,5-difluorophenyl)-7-(2-propyn-1-yloxy)pyrido[3,2-d]pyrimidin-4-amine] | 0.00491 | 0.000709 | 315 | 0.000526
5 | C#CCOc1cnc(C(=O)Nc2cc(F)c(F)c([C@@]3(C)N=C(N)S[C@@]4(C(=O)N5CCCC5)C[C@H]43)c2)cn1 [Example 934, N-(3-((1S,5S,6S)-3-amino-5-methyl-1-(1-pyrrolidinylcarbonyl)-2-thia-4-azabicyclo[4.1.0]hept-3-en-5-yl)-4,5-difluorophenyl)-5-(2-propyn-1-yloxy)-2-pyrazinecarboxamide] | < 0.00203 | 0.000378 | 12.9 | 0.000393
6 | C[C@]1(c2cc(NC(=O)c3ccc(Cl)cn3)cc(F)c2F)N=C(N)S[C@@]2(C(=O)N3CCCC3)C[C@H]21 [Example 935, N-(3-((1S,5S,6S)-3-amino-5-methyl-1-(1-pyrrolidinylcarbonyl)-2-thia-4-azabicyclo[4.1.0]hept-3-en-5-yl)-4,5-difluorophenyl)-5-chloro-2-pyridinecarboxamide] | < 0.00203 | 0.000889 | 254 | 0.000498
7 | C[C@]1(c2cc(Nc3ncnc4cc(OCc5ncco5)cnc34)cc(F)c2F)N=C(N)S[C@@]2(C(=O)N3CCCC3)C[C@H]21 [Example 936, N-(3-((1S,5S,6S)-3-amino-5-methyl-1-(1-pyrrolidinylcarbonyl)-2-thia-4-azabicyclo[4.1.0]hept-3-en-5-yl)-4,5-difluorophenyl)-7-(1,3-oxazol-2-ylmethoxy)pyrido[3,2-d]pyrimidin-4-amine] | 0.0182 | 0.000847 | 115 | 0.00385
8 | C#C[C@H](C)Oc1cnc2c(Nc3cc(F)c(F)c([C@@]4(C)N=C(N)S[C@@]5(C(=O)N6CCCC6)C[C@H]54)c3)nccc2n1 [Example 937, N-(3-((1S,5S,6S)-3-amino-5-methyl-1-(1-pyrrolidinylcarbonyl)-2-thia-4-azabicyclo[4.1.0]hept-3-en-5-yl)-4,5-difluorophenyl)-2-(((1S)-1-methyl-2-propyn-1-yl)oxy)pyrido[3,4-b]pyrazin-5-amine] | 0.0102 | 0.00624 | 872 | 0.00207
9 | C[C@H](Oc1cnc2c(Nc3cc(F)c(F)c([C@@]4(C)N=C(N)S[C@@]5(C(=O)N6CCCC6)C[C@H]54)c3)nccc2n1)c1ncco1 [Example 938, N-(3-((1S,5S,6S)-3-amino-5-methyl-1-(1-pyrrolidinylcarbonyl)-2-thia-4-azabicyclo[4.1.0]hept-3-en-5-yl)-4,5-difluorophenyl)-2-((1S)-1-(1,3-oxazol-2-yl)ethoxy)pyrido[3,4-b]pyrazin-5-amine] | 0.0633 | 0.00508 | 162 | 0.00129
10 | C[C@H](Oc1cnc2c(Nc3cc(F)c(F)c([C@@]4(C)N=C(N)S[C@@]5(C#N)C[C@H]54)c3)nccc2n1)c1ncco1 [Example 939, (1S,5S,6S)-3-amino-5-(2,3-difluoro-5-((2-((1S)-1-(1,3-oxazol-2-yl)ethoxy)pyrido[3,4-b]pyrazin-5-yl)amino)phenyl)-5-methyl-2-thia-4-azabicyclo[4.1.0]hept-3-ene-1-carbonitrile] | 0.127 | 0.165 | 209 | 0.000867
11 | C[C@]1(c2cc(NC(=O)c3cnc(OCC(F)(F)F)cn3)cc(F)c2F)N=C(N)S[C@@]2(C#N)C[C@H]21 [Example 940, N-(3-((1S,5S,6S)-3-amino-1-cyano-5-methyl-2-thia-4-azabicyclo[4.1.0]hept-3-en-5-yl)-4,5-difluorophenyl)-5-(2,2,2-trifluoroethoxy)-2-pyrazinecarboxamide] | 0.0224 | 0.015 | 1390 | 0.004
12 | C#CCOc1cnc2c(Nc3ccc(F)c([C@@]4(CF)N=C(N)S[C@@]5(COC)C[C@H]54)c3)ncnc2c1 [Example 942, N-(3-((1S,5S,6S)-3-amino-5-(fluoromethyl)-1-(methoxymethyl)-2-thia-4-azabicyclo[4.1.0]hept-3-en-5-yl)-4-fluorophenyl)-7-(2-propyn-1-yloxy)pyrido[3,2-d]pyrimidin-4-amine] | 0.0417 | 0.00518 | 1090 | 0.00314
13 | C#CCOc1cnc2c(Nc3cc(F)c(F)c([C@@]4(C)N=C(N)S[C@@]5(COC)C[C@H]54)c3)ncnc2c1 [Example 943, N-(3-((1S,5S,6S)-3-amino-1-(methoxymethyl)-5-methyl-2-thia-4-azabicyclo[4.1.0]hept-3-en-5-yl)-4,5-difluorophenyl)-7-(2-propyn-1-yloxy)pyrido[3,2-d]pyrimidin-4-amine] | 0.101 | 0.00593 | 571 | 0.00223
14 | C#CCOc1cnc2c(Nc3cnc(F)c([C@@]4(C)N=C(N)S[C@@]5(CF)C[C@H]54)c3)ncnc2c1 [Example 944, N-(5-((1S,5S,6S)-3-amino-1-(fluoromethyl)-5-methyl-2-thia-4-azabicyclo[4.1.0]hept-3-en-5-yl)-6-fluoro-3-pyridinyl)-7-(2-propyn-1-yloxy)pyrido[3,2-d]pyrimidin-4-amine] | 0.0696 | 0.00216 | > 400 | 0.00102
15 | COCCOc1cnc2c(Nc3cc(F)c(F)c([C@@]4(C)N=C(N)S[C@@]5(COC)C[C@H]54)c3)ncnc2c1 [Example 946, N-(3-((1S,5S,6S)-3-amino-1-(methoxymethyl)-5-methyl-2-thia-4-azabicyclo[4.1.0]hept-3-en-5-yl)-4,5-difluorophenyl)-7-(2-methoxyethoxy)pyrido[3,2-d]pyrimidin-4-amine] | 0.517 | 0.0174 | 352 | 0.0268
16 | COCCOc1cnc2c(Nc3ccc(F)c([C@@]4(CF)N=C(N)S[C@@]5(COC)C[C@H]54)c3)ncnc2c1 [Example 947, N-(3-((1S,5S,6S)-3-amino-5-(fluoromethyl)-1-(methoxymethyl)-2-thia-4-azabicyclo[4.1.0]hept-3-en-5-yl)-4-fluorophenyl)-7-(2-methoxyethoxy)pyrido[3,2-d]pyrimidin-4-amine] | 0.519 | 0.0337 | 595 | 0.0282
17 | COC[C@]12C[C@H]1[C@@](C)(c1cc(Nc3ncnc4cc(OCc5nc(C)oc5C)cnc34)cc(F)c1F)N=C(N)S2 [Example 948, N-(3-((1S,5S,6S)-3-amino-1-(methoxymethyl)-5-methyl-2-thia-4-azabicyclo[4.1.0]hept-3-en-5-yl)-4,5-difluorophenyl)-7-((2,5-dimethyl-1,3-oxazol-4-yl)methoxy)pyrido[3,2-d]pyrimidin-4-amine] | 0.144 | 0.0102 | 80.9 | 0.00304
18 | C[C@]1(c2cc(Nc3ncc(F)c4cc(OCc5ncco5)cnc34)cc(F)c2F)N=C(N)S[C@@]2(C(F)F)C[C@@H]12 [Example 949, N-(3-((1S,5S,6S)-3-amino-1-(difluoromethyl)-5-methyl-2-thia-4-azabicyclo[4.1.0]hept-3-en-5-yl)-4,5-difluorophenyl)-5-fluoro-3-(1,3-oxazol-2-ylmethoxy)-1,7-naphthyridin-8-amine] | 0.0588 | 0.0841 | 336 | 0.00245
